# Experimental data published in publication PMC6825211 (Nature Communications, 2019).
# pIC50: −log10 of the molar value. Several values for one entry are separate records, joined by “and”; a condition that tells them apart may be missing. Equal entries are not always repeated.
# Columns and labels:
# MEK1 = MEK1 (Homo sapiens, UniProt Q02750); test: Nanosyn kinase profiling, mobility shift assay; assay type: biochemical
# INS-1E cells = test: Caspase-3 activation Nucview assay, TNFα/IFNγ with 33 mM glucose; assay type: cell-based, rat; conditions: up to 6.7 µM neratinib
# human islets = test: β-cell apoptosis (TUNEL/insulin) under diabetogenic conditions; assay type: cell-based; conditions: for mean TUNEL/isolation/%: 72 h
# Procedure: . pThr183), caspase-3 cleavage, and GAPDH or actin were analyzed by western blotting. […] Scale bar, 100 μm. […]; all by Student’s t tests.
# Human islets were isolated from eight pancreases of nondiabetic organ donors at PRODO Labs and at Lille University and cultured on extracellular matrix-coated dishes (Novamed, Jerusalem, Israel)[62] or on Biocoat Collagen I coated dishes (#356400, Corning, ME, USA). […] The clonal rat β-cell line INS-1E was kindly provided by Dr. Claes Wollheim, Geneva & Lund University. Human islets were cultured in complete CMRL-1066 (Invitrogen) medium at 5.5 mM glucose, mouse islets and INS-1E cells at complete RPMI-1640 medium at 11.1 mM glucose. […] . Palmitic acid (Sigma) was dissolved at 10 mmol/l in RPMI-1640 medium containing 11% fatty acid–free bovine serum albumin (BSA) (Sigma) under an N2-atmosphere and added to the culture at 0.5 mM[64]. […] . Isolated human islets or INS-1E cells were infected with adenovirus carrying LacZ as control or MST1 or LATS2 (all Vector Biolabs), at a multiplicity of infection of 100 (human islets) or 20 (INS-1E) for 4 h[11]. Adenovirus was subsequently washed off with PBS and replaced by fresh medium with 10% FBS and the respective analysis performed after 48 h post infection.
# Mouse pancreases were dissected and fixed in 4% formaldehyde at 4 °C for 12 h before embedding in paraffin[62]. Two-four-micrometer sections were deparaffinized, rehydrated, and incubated overnight at 4 °C with anti-PDX-1 (Abcam; #47267), anti-Glut2 (Chemicon; #07-1402), anti-Ki67 (Dako; #M7249), anti-phospho-Histone H3 (Ser10; Merck #06-570), and anti-NKX6.1 (DSHB, University of Iowa #F55A12[66]) in combination with TSA (Invitrogen #T30955), or for 2 h at room temperature with anti-insulin (Dako; A0546) antibodies (all at a dilution of 1:100, except anti-PDX-1, which was diluted 1:400) followed by fluorescein isothiocyanate (FITC)- or Cy3-conjugated secondary antibodies (Jackson ImmunoResearch Laboratories, West Grove, PA). Slides were mounted with Vectashield with 4′6-diamidino-2-phenylindole (DAPI) (Vector Labs). β-cell apoptosis was analyzed by the terminal deoxynucleotidyl transferase-mediated dUTP nick-end labeling (TUNEL) technique according to the manufacturer’s instructions (In Situ Cell Death Detection Kit, TMR red; Roche) and double stained for insulin. Fluorescence was analyzed by using a Nikon MEA53200 (Nikon GmbH, Dusseldorf, Germany) microscope, and images were acquired by using NIS-Elements software (Nikon).
# MLD–STZ C57BL/6J mice [1] = test: MLD–STZ model: random fed blood glucose; assay type: in vivo, mouse; parameters: AUC glycemia: unit not given here
# Procedure: C57Bl/6J mice were injected with 40 mg/kg streptozotocin or citrate buffer for 5 consecutive days. […] In d, basal glucose values were normalized to 100%. e Insulin secretion measured from retro-orbital blood draw during an ipGTT measured before (0 min) and 15 min after glucose injection; data are expressed as the ratio of secreted insulin at 15 min/0 min (stimulatory index). f The ratio of secreted insulin and glucose is calculated at fed state. g–i Mice were killed at day 35. g β-cell mass (given as percentage of the whole pancreatic section from ten sections spanning the width of the pancreas) and quantitative analyses from triple staining for h TUNEL or i Ki67, insulin, and DAPI expressed as percentage of TUNEL- or Ki67-positive β-cells ±SEM. An average number of 2331 (h), or 26369 (i) β-cells were counted. n = 9 mice/group for (a); n = 4–12 for (b); n = 5–15 for (c) and (d); n = 12–19 for (e); n = 8–14 for (f); n = 4–9 for (g); n = 4–11 for (h); and n = 6–11 mice/groupfor (i); all from three independent experiments).
# MLD–STZ C57BL/6J mice [2] = test: MLD–STZ model: β-cell proliferation (Ki67); assay type: in vivo, mouse
# [3] = test system: isolated islets from db/db mice; test: Ex vivo pMST1, BIM (western blot) and nuclear PDX1 in isolated db/db islets; assay type: cell-based, mouse; conditions: 10 μM, 24 h ex vivo
# Text: mouse islets ex vivo. Representative double-stainings for PDX1 (green) and insulin (red) shown from isolated islets from 10-week old heterozygous db/+ mice or db/db littermates […]
# Representative microscopical images are shown. White arrow point to PDX1 deficient nuclei in db/db mouse islets. Related to Figure
# CDK1 = CDK1 (Homo sapiens, UniProt P06493); test: Nanosyn kinase profiling, mobility shift assay; conditions: read-out: % inhibition by neratinib
# CDK2 = CDK2 (Homo sapiens, UniProt P24941); test: Nanosyn kinase profiling, mobility shift assay; conditions: read-out: % inhibition by neratinib
# CK1-EPSILON = CK1-EPSILON (Homo sapiens, UniProt P49674); test: Nanosyn kinase profiling, mobility shift assay; conditions: read-out: % inhibition by neratinib
# DAPK1 = DAPK1 (Homo sapiens, UniProt P53355); test: Nanosyn kinase profiling, mobility shift assay; conditions: read-out: % inhibition by neratinib
# IRAK4 = IRAK4 (Homo sapiens, UniProt Q9NWZ3); test: Nanosyn kinase profiling, mobility shift assay; conditions: read-out: % inhibition by neratinib
# Sequence of IRAK4 (Q9NWZ3 whole entry): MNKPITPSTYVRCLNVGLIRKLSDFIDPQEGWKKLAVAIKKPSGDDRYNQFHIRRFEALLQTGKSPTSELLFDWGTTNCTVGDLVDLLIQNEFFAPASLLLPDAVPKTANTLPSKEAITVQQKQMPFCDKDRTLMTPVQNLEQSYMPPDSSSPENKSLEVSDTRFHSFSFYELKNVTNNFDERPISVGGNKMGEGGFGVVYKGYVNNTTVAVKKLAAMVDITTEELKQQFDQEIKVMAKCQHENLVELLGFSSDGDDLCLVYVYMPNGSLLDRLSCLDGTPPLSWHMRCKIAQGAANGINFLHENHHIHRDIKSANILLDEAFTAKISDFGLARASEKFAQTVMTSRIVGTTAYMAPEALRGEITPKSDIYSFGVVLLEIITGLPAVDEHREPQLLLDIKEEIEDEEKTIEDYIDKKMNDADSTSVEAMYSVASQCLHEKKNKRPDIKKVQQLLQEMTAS
# Sequence of MEK1 (Q02750 whole entry, species assumed): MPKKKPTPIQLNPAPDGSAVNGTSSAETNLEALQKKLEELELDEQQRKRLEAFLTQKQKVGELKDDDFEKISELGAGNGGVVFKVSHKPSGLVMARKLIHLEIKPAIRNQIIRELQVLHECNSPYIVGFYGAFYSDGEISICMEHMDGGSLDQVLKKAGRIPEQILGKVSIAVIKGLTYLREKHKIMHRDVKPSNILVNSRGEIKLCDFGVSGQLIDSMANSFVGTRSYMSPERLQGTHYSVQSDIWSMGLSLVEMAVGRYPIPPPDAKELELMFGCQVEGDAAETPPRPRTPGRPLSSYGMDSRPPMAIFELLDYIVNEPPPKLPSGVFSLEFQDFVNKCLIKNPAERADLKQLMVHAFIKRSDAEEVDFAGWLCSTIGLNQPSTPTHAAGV
# Sequence of CK1-EPSILON (P49674 whole entry): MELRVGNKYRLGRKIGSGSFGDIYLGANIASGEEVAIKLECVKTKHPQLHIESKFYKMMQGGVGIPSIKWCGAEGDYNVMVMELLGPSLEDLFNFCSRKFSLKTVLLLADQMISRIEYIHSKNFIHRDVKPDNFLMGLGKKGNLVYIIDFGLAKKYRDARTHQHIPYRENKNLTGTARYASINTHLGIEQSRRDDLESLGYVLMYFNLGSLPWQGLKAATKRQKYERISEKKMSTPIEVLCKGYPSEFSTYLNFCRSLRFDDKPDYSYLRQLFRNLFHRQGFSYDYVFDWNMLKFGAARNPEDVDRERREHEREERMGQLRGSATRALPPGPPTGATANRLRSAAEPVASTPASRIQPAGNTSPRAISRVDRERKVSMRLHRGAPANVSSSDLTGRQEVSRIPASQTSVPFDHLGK
# Sequence of CDK1 (P06493 whole entry): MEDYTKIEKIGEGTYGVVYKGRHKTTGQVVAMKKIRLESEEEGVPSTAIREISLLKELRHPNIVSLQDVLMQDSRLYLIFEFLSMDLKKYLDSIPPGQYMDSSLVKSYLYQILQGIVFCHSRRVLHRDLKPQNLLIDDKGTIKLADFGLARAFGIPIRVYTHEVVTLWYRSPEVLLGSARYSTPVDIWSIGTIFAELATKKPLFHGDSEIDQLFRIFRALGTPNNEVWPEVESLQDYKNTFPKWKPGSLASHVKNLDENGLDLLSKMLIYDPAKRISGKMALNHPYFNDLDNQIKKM
# Sequence of CDK1 (P14635 whole entry partner): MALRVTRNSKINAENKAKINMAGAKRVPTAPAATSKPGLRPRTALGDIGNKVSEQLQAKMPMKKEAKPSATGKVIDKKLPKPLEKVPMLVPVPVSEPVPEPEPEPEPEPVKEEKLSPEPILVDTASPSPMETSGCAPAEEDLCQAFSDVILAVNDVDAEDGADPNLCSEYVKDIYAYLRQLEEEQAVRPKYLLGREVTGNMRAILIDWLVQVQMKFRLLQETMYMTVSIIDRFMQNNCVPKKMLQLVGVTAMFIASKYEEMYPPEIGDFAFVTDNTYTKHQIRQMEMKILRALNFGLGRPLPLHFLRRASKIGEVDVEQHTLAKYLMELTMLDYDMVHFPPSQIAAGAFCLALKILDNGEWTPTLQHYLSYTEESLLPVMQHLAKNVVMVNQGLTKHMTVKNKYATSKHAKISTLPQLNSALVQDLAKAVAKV
# Sequence of DAPK1 (P53355 whole entry): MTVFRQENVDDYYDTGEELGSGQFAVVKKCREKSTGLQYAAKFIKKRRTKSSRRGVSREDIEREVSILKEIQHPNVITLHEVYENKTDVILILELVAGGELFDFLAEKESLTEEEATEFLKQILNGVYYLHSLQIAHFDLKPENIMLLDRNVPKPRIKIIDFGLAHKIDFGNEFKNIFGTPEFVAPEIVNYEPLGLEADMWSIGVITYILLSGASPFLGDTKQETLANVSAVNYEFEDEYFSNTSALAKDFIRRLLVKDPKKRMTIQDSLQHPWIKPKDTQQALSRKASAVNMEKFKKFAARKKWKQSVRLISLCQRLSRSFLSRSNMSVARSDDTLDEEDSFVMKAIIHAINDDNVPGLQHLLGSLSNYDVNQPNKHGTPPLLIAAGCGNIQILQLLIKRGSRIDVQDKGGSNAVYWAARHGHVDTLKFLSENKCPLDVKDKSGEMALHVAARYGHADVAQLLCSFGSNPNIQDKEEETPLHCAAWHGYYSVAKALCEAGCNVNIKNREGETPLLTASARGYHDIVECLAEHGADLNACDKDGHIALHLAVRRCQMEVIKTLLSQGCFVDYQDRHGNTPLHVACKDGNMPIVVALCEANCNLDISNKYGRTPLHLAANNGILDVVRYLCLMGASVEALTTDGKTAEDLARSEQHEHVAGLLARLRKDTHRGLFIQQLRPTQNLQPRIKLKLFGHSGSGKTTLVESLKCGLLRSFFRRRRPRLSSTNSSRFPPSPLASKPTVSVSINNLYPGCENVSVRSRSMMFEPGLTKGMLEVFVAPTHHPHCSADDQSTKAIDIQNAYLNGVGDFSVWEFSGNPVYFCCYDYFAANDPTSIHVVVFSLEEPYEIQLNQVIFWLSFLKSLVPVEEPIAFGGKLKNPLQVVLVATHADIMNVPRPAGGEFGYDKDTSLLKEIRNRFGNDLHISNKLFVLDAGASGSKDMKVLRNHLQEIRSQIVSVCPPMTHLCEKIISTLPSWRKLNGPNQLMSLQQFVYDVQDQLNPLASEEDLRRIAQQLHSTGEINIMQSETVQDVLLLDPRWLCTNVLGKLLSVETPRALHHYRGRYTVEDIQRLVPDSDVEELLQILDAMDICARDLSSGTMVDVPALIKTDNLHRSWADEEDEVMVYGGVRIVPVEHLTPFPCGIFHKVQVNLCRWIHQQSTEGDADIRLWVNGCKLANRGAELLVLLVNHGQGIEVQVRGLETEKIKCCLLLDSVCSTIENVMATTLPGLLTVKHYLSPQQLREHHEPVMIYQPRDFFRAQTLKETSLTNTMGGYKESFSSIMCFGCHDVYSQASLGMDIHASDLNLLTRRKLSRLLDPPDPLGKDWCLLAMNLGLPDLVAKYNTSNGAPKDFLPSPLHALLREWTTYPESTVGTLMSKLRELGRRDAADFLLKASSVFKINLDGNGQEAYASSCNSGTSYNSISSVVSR
smiles,measurement,setting,value
CCOc1cc2ncc(C#N)c(Nc3ccc(OCc4ccccn4)c(Cl)c3)c2cc1NC(=O)/C=C/CN(C)C [neratinib],pIC50,MEK1; 12 points dose response,5.83
same,inhibition at 10 µM,MEK1; read-out: % inhibition by neratinib,73%
same,caspase-3 activation induced by TNFα/IFNγ and high glucose,INS-1E cells,largely inhibited
same,toxicity at basal control levels,"human islets; 25 µM neratinib, human islets",did not result in any detectable toxicity
same,mean TUNEL/isolation/%,"human islets; HG/Pal + NERA, mean of isolations, untreated = 100",180.73%
same,mean TUNEL/isolation/%,"human islets; HG/Pal + NERA, single islet isolations, untreated mean = 100",224.286% and 136.508% and 181.395%
same,mean TUNEL/isolation/%,"human islets; ILIF + NERA, mean of isolations, untreated = 100",205.757%
same,glycemia in nondiabetic control mice,MLD–STZ C57BL/6J mice [1]; 5 mg/kg i.p. daily,no effect on glycemia
same,glucose levels in STZ mice,"MLD–STZ C57BL/6J mice [1]; 5 mg/kg i.p. daily, 35 days",lower glucose levels during the entire 35 days
same,glycemia,"MLD–STZ C57BL/6J mice [1]; NeraCtr (no STZ, neratinib 5 mg/kg i.p. daily), day 0, individual mice",136 mg/dL and 120 mg/dL and 165 mg/dL and 122 mg/dL and 87 mg/dL and 80 mg/dL and 78 mg/dL and 130 mg/dL
same,AUC glycemia,"MLD–STZ C57BL/6J mice [1]; NeraCtr, Mean",4215.5
same,glycemia,"MLD–STZ C57BL/6J mice [1]; NeraCtr, day 3, individual mice",139 mg/dL and 103 mg/dL and 119 mg/dL and 117 mg/dL and 104 mg/dL and 116 mg/dL and 114 mg/dL and 149 mg/dL and 112 mg/dL
same,glycemia,"MLD–STZ C57BL/6J mice [1]; NeraCtr, day 7, individual mice",100 mg/dL and 134 mg/dL and 130 mg/dL and 92 mg/dL and 120 mg/dL and 106 mg/dL and 114 mg/dL and 125 mg/dL and 111 mg/dL
same,glycemia,"MLD–STZ C57BL/6J mice [1]; NeraCtr, day 9, individual mice",108 mg/dL and 93 mg/dL and 122 mg/dL and 89 mg/dL and 96 mg/dL and 109 mg/dL and 111 mg/dL and 90 mg/dL
same,glycemia,"MLD–STZ C57BL/6J mice [1]; NeraCtr, day 12, individual mice",138 mg/dL and 112 mg/dL and 125 mg/dL and 100 mg/dL and 117 mg/dL and 105 mg/dL and 86 mg/dL and 133 mg/dL
same,glycemia,"MLD–STZ C57BL/6J mice [1]; NeraCtr, day 16, individual mice",104 mg/dL and 92 mg/dL and 112 mg/dL and 106 mg/dL and 96 mg/dL and 88 mg/dL and 118 mg/dL and 93 mg/dL
same,glycemia,"MLD–STZ C57BL/6J mice [1]; NeraCtr, day 22, individual mice",115 mg/dL and 102 mg/dL and 145 mg/dL and 144 mg/dL and 132 mg/dL and 113 mg/dL and 110 mg/dL and 103 mg/dL and 146 mg/dL
same,glycemia,"MLD–STZ C57BL/6J mice [1]; NeraCtr, day 28, individual mice",109 mg/dL and 137 mg/dL and 141 mg/dL and 103 mg/dL and 110 mg/dL and 127 mg/dL and 112 mg/dL and 156 mg/dL and 106 mg/dL
same,glycemia,"MLD–STZ C57BL/6J mice [1]; NeraCtr, day 36, individual mice",156 mg/dL and 132 mg/dL and 145 mg/dL and 146 mg/dL and 111 mg/dL and 114 mg/dL and 120 mg/dL and 109 mg/dL
same,AUC glycemia,"MLD–STZ C57BL/6J mice [1]; NeraCtr, individual mice",4340.5 and 4217 and 4748 and 4310 and 3997 and 3944.5 and 3991 and 4247 and 4144.5
same,glycemia,"MLD–STZ C57BL/6J mice [1]; NeraSTZ (STZ + neratinib 5 mg/kg i.p. daily), day 0, individual mice",112 mg/dL and 125 mg/dL and 148 mg/dL
same,AUC glycemia,"MLD–STZ C57BL/6J mice [1]; NeraSTZ, Mean",7519.28
same,glycemia,"MLD–STZ C57BL/6J mice [1]; NeraSTZ, day 3, individual mice",94 mg/dL and 102 mg/dL and 117 mg/dL
same,glycemia,"MLD–STZ C57BL/6J mice [1]; NeraSTZ, day 7, individual mice",117 mg/dL and 131 mg/dL and 93 mg/dL
same,glycemia,"MLD–STZ C57BL/6J mice [1]; NeraSTZ, day 9, individual mice",179 mg/dL and 138 mg/dL and 134 mg/dL
same,glycemia,"MLD–STZ C57BL/6J mice [1]; NeraSTZ, day 12, individual mice",250 mg/dL and 310 mg/dL and 180 mg/dL
same,glycemia,"MLD–STZ C57BL/6J mice [1]; NeraSTZ, day 16, individual mice",173 mg/dL and 303 mg/dL
same,glycemia,"MLD–STZ C57BL/6J mice [1]; NeraSTZ, day 22, individual mice",209 mg/dL and 344 mg/dL
same,glycemia,"MLD–STZ C57BL/6J mice [1]; NeraSTZ, day 28, individual mice",213 mg/dL and 229 mg/dL
same,glycemia,"MLD–STZ C57BL/6J mice [1]; NeraSTZ, day 36, individual mice",214 mg/dL and 337 mg/dL and 230 mg/dL
same,AUC glycemia,"MLD–STZ C57BL/6J mice [1]; NeraSTZ, individual mice",6636.5 and 8897.5 and 6783.5 and 7009 and 8879.5 and 5194.5 and 8003.5 and 8416 and 7853.5
same,Ki67%/ mouse,"MLD–STZ C57BL/6J mice [2]; NeraCtr group (no STZ), MEAN",0.3774%
same,Ki67%/ mouse,"MLD–STZ C57BL/6J mice [2]; NeraCtr group (no STZ), individual mice",0% and 2% and 1.019%
same,Ki67%/ mouse,"MLD–STZ C57BL/6J mice [2]; NeraSTZ group, MEAN",3.98%
same,Ki67%/ mouse,"MLD–STZ C57BL/6J mice [2]; NeraSTZ group, individual mice",0% and 6.981% and 5.492% and 7.984% and 3.425%
same,MST1 activation and proapoptotic BIM in db/db islets,[3],reversed
same,nuclear PDX1 expression in db/db islets,[3],enhanced nuclear PDX1 expression
same,inhibition at 10 µM,CDK1,14%
same,inhibition at 10 µM,CDK2,9%
same,inhibition at 10 µM,CK1-EPSILON,77%
same,inhibition at 10 µM,DAPK1,4%
same,inhibition at 10 µM,IRAK4,17%
